According to patent US20040019026A1, “Compounds useful for treating hypertriglyceridemia” (priority 2000, published 2004):

What was measured:
Female CD-1 mice = test: Dexamethasone-induced thymic and splenic atrophy, anti-glucocorticoid effect (Example 4); type: in vivo; conditions: 1.6 mg dexamethasone s.c., sacrifice about 24 hours later
Method: Female CD-1 mice were obtained from Charles River Laboratories, Kingston, N.Y. at 43-45 days of age. The mice were housed five per cage in plastic shoebox cages on corn cob bedding in the Fels Animal Facility at 72°±2° F. with 50%±5% humidity and twelve hours of alternate light and darkness. The mice had ad libitum access to Purina chain 5015 and acidified water for pretreatment.
Six days later, the mice were weighed, earmarked and redistributed into six groups for treatment: 1) a control group, 2) a group treated with dexamethasone (“DEX”), a glucocorticoid which induces thymic and splenic atrophy, 3) a group treated with 200 mg/kg 16α-fluoro-5-androsten-17-one (hereinafter “drug”), 4) a group treated with 400 mg/kg of, 5) a group treated with dexamethasone and 200 mg/kg drug and 6) a group treated with dexamethasone and 400 mg/kg drug. The treatment in the groups were as follows and were conducted simuitaneously.
The control group was intubated with 0.2 mL of sesame oil for three days. On the third day after commencement of the intubation, the mice were injected subcutaneously with 0.05 mL of absolute ethanol one hour after the last treatment with sesame oil.
The second group was intubated with 0.2 mL of sesame oil for three days. On the third day after the commencement of the intubation, the mice were injected subcutaneously with 1.6 mg of dexamethasone dissolved in 0.05 mL of absolute ethanol approximately one hour after the last treatment with sesame oil.
The third and fourth groups were intubated with 200 mg/Kg and 400 mg/Kg drug, respectively, suspended in 0.2 mL of sesame oil for three days. After commencement of the intubation, the mice were injected subcutaneously with 0.05 mL of absolute ethanol approximately one hour after the last treatment with sesame oil.
The fifth and sixth groups were intubated with 200 mg/kg and 400 mg/kg, respectively, of drug, suspended in 0.2 mL of sesame oil for three days. On the third day after commencement of the intubation, the mice were injected subcutaneously with 1.6 mg of dexamethasome dissolved in 0.05 mL of absolute ethanol approximately one hour after the last treatment with sesame oil.
All of the mice were sacrificed by an overdose of CO2 approximately 24 hours after the injection of ethanol (first, third and fourth groups) or approximately 24 hours after injection with dexamethasone (second, fifth and sixth groups). The mice were weighed and the thymus was excised, cleaned of adventia, rinsed in phosphate-buffered saline (P.B.S.), blotted and weighed. The spleen was also excised, cleaned, rinsed, blotted and weighed.

[1] = background statement; cited from earlier work

Row | SMILES | Spleen Wt. (Female CD-1 mice) [mg] | Thymus Wt. (Female CD-1 mice) [mg] | Effect on HDL levels [1] | Effect on insulin resistance [1] | Lowering of triglycerides [1] | Side effects [1]
1 | C[C@@H]1C[C@H]2[C@@H]3CCC4=CC(=O)C=C[C@]4(C)[C@@]3(F)[C@@H](O)C[C@]2(C)[C@@]1(O)C(=O)CO [DEX, dexamethasone, reference compound] | 45.2 ± 7.5 | 36.8 ± 7.1 |  |  |  | 
2 | Cc1ccc(C)c(OCCCC(C)(C)C(=O)O)c1 [Gemfibrozil, gemfibrozil] |  |  | modestly raises HDL levels | no effect on insulin resistance | 25-35% | 
3 | O=C(O)c1cccnc1 [Nicotinic acid, nicotinic acid] |  |  |  | worsens insulin resistance |  | intense flushing and associated pruritus
